{"source": "PubChem BioAssay AID1845203", "about": "(Molecular Pharmacology Branch, DTP, NCI, 2023)", "test_system": "G-401 tumor spheroids, viability % test/control", "test": "Anticancer human tumor G-401 cell line growth inhibition;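 as to all read-outs here: spheroids exposed to compound for 7 days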;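 as to viability, T/C: 100% = DMSO vehicle-treated spheroids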", "settings": "spheroids with HUVEC and MSC; for viability, T/C: stronger effect = lower value", "summary_of_the_method": "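Single agents and combinations were tested on spheroids built from tumor cells plus HUVEC and hMSC, at half-log dilutions starting at or near clinical Cmax, else 10 microM; final DMSO 0.25% (v/v).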", "note": "Where “and” joins values, the source holds several entries; their conditions need not be identical. Identical values can stand only once.", "data": [{"smiles": "Cc1cc(C)c(CNC(=O)c2cc(-c3ccc(CN4CCOCC4)cc3)cc3c2cnn3C2CCCC2)c(=O)[nH]1", "note": "+ Cn1nnc2c(C(N)=O)ncn2c1=O", "values": [{"measurement": "IC50", "setting": "curve of first compound, second compound 1 µM", "result": "> 10", "unit": "µM"}, {"measurement": "IC50", "setting": "curve of first compound, second compound 3.16 µM", "result": "> 10", "unit": "µM"}, {"measurement": "IC50", "setting": "curve of first compound, second compound 10 µM", "result": "> 10", "unit": "µM"}, {"measurement": "IC50", "setting": "curve of first compound, second compound 31.6 µM", "result": "> 10", "unit": "µM"}, {"measurement": "IC50", "setting": "curve of first compound, second compound 100 µM", "result": 8.79, "unit": "µM"}, {"measurement": "viability, T/C", "setting": "second compound 1 µM, first compound 0.0316 µM", "result": 111, "unit": "%"}, {"measurement": "viability, T/C", "setting": "second compound 1 µM, first compound 0.1 µM", "result": 106, "unit": "%"}, {"measurement": "viability, T/C", "setting": "second compound 1 µM, first compound 0.316 µM", "result": 95.8, "unit": "%"}, {"measurement": "viability, T/C", "setting": "second compound 1 µM, first compound 1 µM", "result": 105, "unit": "%"}, {"measurement": "viability, T/C", "setting": "second compound 1 µM, first compound 3.16 µM", "result": 87.9, "unit": "%"}, {"measurement": "viability, T/C", "setting": "second compound 1 µM, first compound 10 µM", "result": 62.5, "unit": "%"}, {"measurement": "viability, T/C", "setting": "second compound 3.16 µM, first compound 0.0316 µM", "result": 103, "unit": "%"}, {"measurement": "viability, T/C", "setting": "second compound 3.16 µM, first compound 0.1 µM", "result": 104, "unit": "%"}, {"measurement": "viability, T/C", "setting": "second compound 3.16 µM, first compound 0.316 µM", "result": 105, "unit": "%"}, {"measurement": "viability, T/C", "setting": "second compound 3.16 µM, first compound 1 µM", "result": 93.3, "unit": "%"}, {"measurement": "viability, T/C", "setting": "second compound 3.16 µM, first compound 3.16 µM", "result": 80.6, "unit": "%"}, {"measurement": "viability, T/C", "setting": "second compound 3.16 µM, first compound 10 µM", "result": 55.8, "unit": "%"}, {"measurement": "viability, T/C", "setting": "second compound 10 µM, first compound 0.0316 µM", "result": 103, "unit": "%"}, {"measurement": "viability, T/C", "setting": "second compound 10 µM, first compound 0.1 µM", "result": 99, "unit": "%"}, {"measurement": "viability, T/C", "setting": "second compound 10 µM, first compound 0.316 µM", "result": 97.1, "unit": "%"}, {"measurement": "viability, T/C", "setting": "second compound 10 µM, first compound 1 µM", "result": 90.1, "unit": "%"}, {"measurement": "viability, T/C", "setting": "second compound 10 µM, first compound 3.16 µM", "result": 82.6, "unit": "%"}, {"measurement": "viability, T/C", "setting": "second compound 10 µM, first compound 10 µM", "result": 53.5, "unit": "%"}, {"measurement": "viability, T/C", "setting": "second compound 31.6 µM, first compound 0.0316 µM", "result": 94.3, "unit": "%"}, {"measurement": "viability, T/C", "setting": "second compound 31.6 µM, first compound 0.1 µM", "result": 94.4, "unit": "%"}, {"measurement": "viability, T/C", "setting": "second compound 31.6 µM, first compound 0.316 µM", "result": 92.9, "unit": "%"}, {"measurement": "viability, T/C", "setting": "second compound 31.6 µM, first compound 1 µM", "result": 91.5, "unit": "%"}, {"measurement": "viability, T/C", "setting": "second compound 31.6 µM, first compound 3.16 µM", "result": 80.5, "unit": "%"}, {"measurement": "viability, T/C", "setting": "second compound 31.6 µM, first compound 10 µM", "result": 52, "unit": "%"}, {"measurement": "viability, T/C", "setting": "second compound 100 µM, first compound 0.0316 µM", "result": 96.5, "unit": "%"}, {"measurement": "viability, T/C", "setting": "second compound 100 µM, first compound 0.1 µM", "result": 103, "unit": "%"}, {"measurement": "viability, T/C", "setting": "second compound 100 µM, first compound 0.316 µM", "result": 94.3, "unit": "%"}, {"measurement": "viability, T/C", "setting": "second compound 100 µM, first compound 1 µM", "result": 93.6, "unit": "%"}, {"measurement": "viability, T/C", "setting": "second compound 100 µM, first compound 3.16 µM", "result": 74.2, "unit": "%"}, {"measurement": "viability, T/C", "setting": "second compound 100 µM, first compound 10 µM", "result": 46.9, "unit": "%"}]}, {"smiles": "O=C(c1cc(Cc2n[nH]c(=O)c3ccccc23)ccc1F)N1CCN(C(=O)C2CC2)CC1", "values": [{"measurement": "viability, T/C", "setting": "compound 0.0949 µM", "result": "98.3% and 98.6% and 96.5%"}, {"measurement": "viability, T/C", "setting": "compound 0.3 µM", "result": "97.5% and 84.9% and 91.2%"}, {"measurement": "viability, T/C", "setting": "compound 0.949 µM", "result": "96.1% and 86.9% and 105%"}, {"measurement": "viability, T/C", "setting": "compound 3 µM", "result": "83.7% and 82.5% and 87%"}, {"measurement": "viability, T/C", "setting": "compound 9.49 µM", "result": "54.9% and 49.4% and 58.5%"}, {"measurement": "viability, T/C", "setting": "compound 30 µM", "result": "40.1% and 28.5% and 34.9%"}, {"measurement": "IC50", "setting": "curve of compound", "result": "13.9 µM and 9.39 µM and 14.2 µM"}]}, {"smiles": "CNCc1ccc(-c2cc(-c3nc(-c4ccc(S(=O)(=O)C(C)C)cc4)cnc3N)on2)cc1", "note": "+ CC[C@@]1(O)C(=O)OCc2c1cc1n(c2=O)Cc2cc3c(CN(C)C)c(O)ccc3nc2-1", "values": [{"measurement": "IC50", "setting": "curve of first compound, second compound 0.003 µM", "result": 0.326, "unit": "µM"}, {"measurement": "IC50", "setting": "curve of first compound, second compound 0.00949 µM", "result": "< 0.00949", "unit": "µM"}, {"measurement": "IC50", "setting": "curve of first compound, second compound 0.03 µM", "result": "< 0.00949", "unit": "µM"}, {"measurement": "IC50", "setting": "curve of first compound, second compound 0.0949 µM", "result": "< 0.00949", "unit": "µM"}, {"measurement": "IC50", "setting": "curve of first compound, second compound 0.3 µM", "result": "< 0.00949", "unit": "µM"}, {"measurement": "viability, T/C", "setting": "second compound 0.003 µM, first compound 0.00949 µM", "result": 82.9, "unit": "%"}, {"measurement": "viability, T/C", "setting": "second compound 0.003 µM, first compound 0.03 µM", "result": 88, "unit": "%"}, {"measurement": "viability, T/C", "setting": "second compound 0.003 µM, first compound 0.0949 µM", "result": 81.7, "unit": "%"}, {"measurement": "viability, T/C", "setting": "second compound 0.003 µM, first compound 0.3 µM", "result": 50.5, "unit": "%"}, {"measurement": "viability, T/C", "setting": "second compound 0.003 µM, first compound 0.949 µM", "result": 30.2, "unit": "%"}, {"measurement": "viability, T/C", "setting": "second compound 0.003 µM, first compound 3 µM", "result": 21.1, "unit": "%"}, {"measurement": "viability, T/C", "setting": "second compound 0.00949 µM, first compound 0.00949 µM", "result": 43.9, "unit": "%"}, {"measurement": "viability, T/C", "setting": "second compound 0.00949 µM, first compound 0.03 µM", "result": 51.2, "unit": "%"}, {"measurement": "viability, T/C", "setting": "second compound 0.00949 µM, first compound 0.0949 µM", "result": 39.5, "unit": "%"}, {"measurement": "viability, T/C", "setting": "second compound 0.00949 µM, first compound 0.3 µM", "result": 21.5, "unit": "%"}, {"measurement": "viability, T/C", "setting": "second compound 0.00949 µM, first compound 0.949 µM", "result": 16.5, "unit": "%"}, {"measurement": "viability, T/C", "setting": "second compound 0.00949 µM, first compound 3 µM", "result": 17.1, "unit": "%"}, {"measurement": "viability, T/C", "setting": "second compound 0.03 µM, first compound 0.00949 µM", "result": 21, "unit": "%"}, {"measurement": "viability, T/C", "setting": "second compound 0.03 µM, first compound 0.03 µM", "result": 15.8, "unit": "%"}, {"measurement": "viability, T/C", "setting": "second compound 0.03 µM, first compound 0.0949 µM", "result": 17.9, "unit": "%"}, {"measurement": "viability, T/C", "setting": "second compound 0.03 µM, first compound 0.3 µM", "result": 19.5, "unit": "%"}, {"measurement": "viability, T/C", "setting": "second compound 0.03 µM, first compound 0.949 µM", "result": 20.8, "unit": "%"}, {"measurement": "viability, T/C", "setting": "second compound 0.03 µM, first compound 3 µM", "result": 18.1, "unit": "%"}, {"measurement": "viability, T/C", "setting": "second compound 0.0949 µM, first compound 0.00949 µM", "result": 8.75, "unit": "%"}, {"measurement": "viability, T/C", "setting": "second compound 0.0949 µM, first compound 0.03 µM", "result": 8.82, "unit": "%"}, {"measurement": "viability, T/C", "setting": "second compound 0.0949 µM, first compound 0.0949 µM", "result": 12.4, "unit": "%"}, {"measurement": "viability, T/C", "setting": "second compound 0.0949 µM, first compound 0.3 µM", "result": 16.4, "unit": "%"}, {"measurement": "viability, T/C", "setting": "second compound 0.0949 µM, first compound 0.949 µM", "result": 16.9, "unit": "%"}, {"measurement": "viability, T/C", "setting": "second compound 0.0949 µM, first compound 3 µM", "result": 13.3, "unit": "%"}, {"measurement": "viability, T/C", "setting": "second compound 0.3 µM, first compound 0.00949 µM", "result": 4.81, "unit": "%"}, {"measurement": "viability, T/C", "setting": "second compound 0.3 µM, first compound 0.03 µM", "result": 6.19, "unit": "%"}, {"measurement": "viability, T/C", "setting": "second compound 0.3 µM, first compound 0.0949 µM", "result": 7.23, "unit": "%"}, {"measurement": "viability, T/C", "setting": "second compound 0.3 µM, first compound 0.3 µM", "result": 9.53, "unit": "%"}, {"measurement": "viability, T/C", "setting": "second compound 0.3 µM, first compound 0.949 µM", "result": 9.78, "unit": "%"}, {"measurement": "viability, T/C", "setting": "second compound 0.3 µM, first compound 3 µM", "result": 4.97, "unit": "%"}]}, {"smiles": "CNCc1ccc(-c2cc(-c3nc(-c4ccc(S(=O)(=O)C(C)C)cc4)cnc3N)on2)cc1", "values": [{"measurement": "viability, T/C", "setting": "compound 0.00949 µM", "result": "97.3% and 93.8% and 100%"}, {"measurement": "viability, T/C", "setting": "compound 0.03 µM", "result": "102% and 98.4% and 99.4%"}, {"measurement": "viability, T/C", "setting": "compound 0.0949 µM", "result": "103% and 105% and 101%"}, {"measurement": "viability, T/C", "setting": "compound 0.3 µM", "result": "96.6% and 96% and 97.9%"}, {"measurement": "viability, T/C", "setting": "compound 0.949 µM", "result": "71.3% and 64% and 69.4%"}, {"measurement": "viability, T/C", "setting": "compound 3 µM", "result": "41.7% and 38.1% and 39.8%"}, {"measurement": "IC50", "setting": "curve of compound", "result": "2.17 µM and 1.77 µM and 2.02 µM"}]}]}
